In patent US20090069320A1, “Substituted 4-Amino-Quinazoline Compounds with Metabotropic Glutamate Receptor Regulating Activity and Uses Thereof” (Gruenenthal GmbH, priority 2006, published 2009):
Structures can show the parent of a compound that is named as a salt.

Biological target: T1, mGluR5 receptor (Sus scrofa, UniProt I3LUI7)
T1 construct: 450 μg of protein from brain homogenate with 5 nM ^3[H]-MPEP; from tissue; host or cells: pig brain halves without medulla, cerebellum and pons
Assay: [3H]-MPEP mGluR5 receptor binding assay (pig brain homogenate)
Details: 5 nM [3H]-MPEP, read-out: IC50 mGluR5 Receptor (pig) [^3H]-MPEP Bond
How it was run: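 Radioligand displacement of 5 nM [3H]-MPEP from pig brain homogenate (450 μg protein; medulla, cerebellum and pons removed) in 20 mM Hepes pH 8.0. Compounds were tested at 10 μM, incubated 60 min at room temperature, then filtered and counted by scintillation. Non-specific binding was defined with 10 μM MPEP.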

T1 sequence (I3LUI7 19-1212): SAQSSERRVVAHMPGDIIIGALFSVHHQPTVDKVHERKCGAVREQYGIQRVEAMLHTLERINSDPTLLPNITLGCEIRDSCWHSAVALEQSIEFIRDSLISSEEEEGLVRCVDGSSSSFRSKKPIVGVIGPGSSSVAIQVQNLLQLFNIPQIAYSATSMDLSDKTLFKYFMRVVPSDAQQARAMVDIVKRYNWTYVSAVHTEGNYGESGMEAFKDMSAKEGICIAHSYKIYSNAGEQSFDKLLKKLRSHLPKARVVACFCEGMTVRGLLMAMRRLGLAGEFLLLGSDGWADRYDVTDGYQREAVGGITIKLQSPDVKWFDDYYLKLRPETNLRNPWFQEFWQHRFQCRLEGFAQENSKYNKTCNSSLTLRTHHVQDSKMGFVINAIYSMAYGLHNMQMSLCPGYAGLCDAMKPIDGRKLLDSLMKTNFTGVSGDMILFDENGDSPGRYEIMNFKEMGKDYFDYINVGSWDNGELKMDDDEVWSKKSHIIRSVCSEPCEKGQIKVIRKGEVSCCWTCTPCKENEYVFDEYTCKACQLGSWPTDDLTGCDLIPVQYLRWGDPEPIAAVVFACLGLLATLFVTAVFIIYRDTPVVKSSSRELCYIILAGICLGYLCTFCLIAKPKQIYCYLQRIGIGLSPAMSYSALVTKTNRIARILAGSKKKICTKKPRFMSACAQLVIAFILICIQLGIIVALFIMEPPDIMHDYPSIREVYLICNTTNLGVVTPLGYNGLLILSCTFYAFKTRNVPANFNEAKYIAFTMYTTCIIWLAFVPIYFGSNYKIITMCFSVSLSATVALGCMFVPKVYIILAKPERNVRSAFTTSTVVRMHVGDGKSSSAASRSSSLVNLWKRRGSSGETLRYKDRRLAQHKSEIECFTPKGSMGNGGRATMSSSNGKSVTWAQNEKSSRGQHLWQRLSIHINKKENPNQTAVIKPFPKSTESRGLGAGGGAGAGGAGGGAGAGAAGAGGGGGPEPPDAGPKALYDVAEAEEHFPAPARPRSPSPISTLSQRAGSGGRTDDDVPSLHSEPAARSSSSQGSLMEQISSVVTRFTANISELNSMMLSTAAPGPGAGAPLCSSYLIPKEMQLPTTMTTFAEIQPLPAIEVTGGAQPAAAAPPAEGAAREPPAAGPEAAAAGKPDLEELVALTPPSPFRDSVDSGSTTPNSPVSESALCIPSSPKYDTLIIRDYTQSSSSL

| IC50 [µM] | SMILES |
| --- | --- |
| 0.27 | O=C1CCC(=O)N1Cc1cc(-c2ccc3ncnc(NC4CC4)c3c2)ccc1F [Example 193, 1-(5-(4-(cyclopropylamino)quinazolin-6-yl)-2-fluorobenzyl)pyrrolidine-2,5-dione] |
| 6.07 | CS(=O)(=O)N(Cc1cccc(-c2ccc3ncnc(NC4CC4)c3c2)c1)C1CCCC1 [Example 210, N-cyclopentyl-N-(3-(4-(cyclopropylamino)quinazolin-6-yl)benzyl)methane sulfonamide] |
| 6.55 | COc1ccc(CN(C(=O)c2ccccc2)C2CC2)cc1-c1ccc2ncnc(NC3CC3)c2c1 [Example 267, N-cyclopropyl-N-(3-(4-(cyclopropylamino)quinazolin-6-yl)-4-methoxybenzyl)benzamide hydrochloride] |

Same assay, conditions: 10 μM compound, 5 nM [3H]-MPEP

| % Inhibition of mGluR5 Receptor (pig) [^3H]-MPEP Bond at 10 μM [%] | SMILES |
| --- | --- |
| 84 | O=S(=O)(c1cccc(C(F)(F)F)c1)N(Cc1cc(-c2ccc3ncnc(NC4CC4)c3c2)ccc1Cl)C1CC1 [Example 778, N-(2-chloro-5-(4-(cyclopropylamino)quinazolin-6-yl)benzyl)-N-cyclopropyl-3-(trifluoromethyl)benzole sulfonamide] |

Same assay, conditions: 10 μM compound, 5 nM [3H]-MPEP, read-out: % Inhibition of mGluR5 Receptor (pig) [^3H]-MPEP Bond at 10 μM

| inhibition at 10 µM [%] | SMILES |
| --- | --- |
| 80 | Cc1nc(NC2CC2)c2cc(-c3ccc(F)c(CN(C(=O)c4cccc(C(F)(F)F)c4)C4CC4)c3)ccc2n1 [Example 582, N-cyclopropyl-N-(5-(4-(cyclopropylamino)-2-methylquinazolin-6-yl)-2-fluorobenzyl)-3-(trifluoromethyl)benzamide] |
| 96 | O=C(c1ccccn1)N(Cc1cc(-c2ccc3ncnc(NC4CC4)c3c2)ccc1F)C1CC1 [Example 428, N-cyclopropyl-N-(5-(4-(cyclopropylamino)quinazolin-6-yl)-2-fluorobenzyl)picolinamide] |
| 94 | Cc1cc2ncnc(NC3CC3)c2cc1-c1cccc(CN(C(=O)c2ccc(F)cc2F)C2CC2)c1 [Example 660, N-cyclopropyl-N-(3-(4-(cyclopropylamino)-7-methylquinazolin-6-yl)benzyl)-2,4-difluorobenzamide] |
| 58 | c1cc(CNCc2ccco2)cc(-c2ccc3ncnc(NC4CC4)c3c2)c1 [Example 312, N-cyclopropyl-6-(3-((furan-2-ylmethylamino)methyl)phenyl)quinazoline-4-amine dihydrochloride] |
| 85 | O=C(c1ccccc1C(F)(F)F)N(Cc1cc(-c2ccc3ncnc(NC4CC4)c3c2)ccc1Cl)C1CC1 [Example 740, N-(2-chloro-5-(4-(cyclopropylamino)quinazolin-6-yl)benzyl)-N-cyclopropyl-2-(trifluoromethyl)benzamide] |
| 89 | CCCCC(=O)N(Cc1cc(-c2ccc3ncnc(NC4CC4)c3c2)ccc1F)C1CC1 [Example 382, N-cyclopropyl-N-(5-(4-(cyclopropylamino)quinazolin-6-yl)-2-fluorobenzyl)pentanamide] |
| 34 | CCN(CC)c1ncnc2ccc(-c3cccc(CN(C)C(=O)c4ccsc4)c3)cc12 [Example 70, thiophene-3-carboxylic acid [3-(4-diethylamino-quinazolin-6-yl)-benzyl]-methyl-amide] |
| 44 | CCCN(Cc1cccc(-c2ccc3ncnc(Nc4ccccc4)c3c2)c1)C(=O)COc1ccccc1 [Example 90, 2-phenoxy-N-[3-(4-phenylamino-quinazolin-6-yl)-benzyl]-N-propyl-acetamide] |
| 56 | COc1ccc(C(=O)N(Cc2cc(-c3ccc4ncnc(NC5CC5)c4c3)ccc2Cl)C2CC2)cc1OC [Example 784, N-(2-chloro-5-(4-(cyclopropylamino)quinazolin-6-yl)benzyl)-N-cyclopropyl-3,4-dimethoxybenzamide] |
| 69 | Cc1cc(C(=O)N(Cc2cccc(-c3cc4c(NC5CC5)ncnc4cc3C)c2)C2CC2)n(C)n1 [Example 706, N-cyclopropyl-N-(3-(4-(cyclopropylamino)-7-methylquinazolin-6-yl)benzyl)-1,3-dimethyl-1H-pyrazole-5-carboxamide] |
